Assay results: article PMC10385850, “Modified Hederagenin Derivatives Demonstrate Ex Vivo Anthelmintic Activity against Fasciola hepatica” (Pharmaceutics, 2023)

Experiments:
[1] = system: F. hepatica newly excysted juveniles (NEJs), Italian strain; test: Ex vivo screen against newly excysted juveniles (NEJs), phenotype and motility scoring; type: cell-based, Fasciola hepatica; conditions: 10 µM; for Average phenotype of 25 NEJs with 95% CI, 24 hours / Average phenotype of 25 NEJs with 95% CI, 48 hours / Average phenotype of 25 NEJs with 95% CI, 72 hours: ultrastructure score 1 normal to 6 dead or dissolved; for Activity against NEJs (first screen), in words: 72 h co-culture
Summary of the method: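 Newly excysted juveniles of the Italian strain of F. hepatica were obtained by excysting metacercariae and exposed ex vivo to test compounds at 10 μM final concentration in 0.1% DMSO. Controls were 0.1% DMSO (negative) and 10 μM TCBZ in 0.1% DMSO (positive). Motility was scored from 1 (good/normal) to 5 (no movement), and ultrastructural phenotype changes were scored with an established matrix.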

[2] = system: wild strain adult F. hepatica; test: Ex vivo motility assay on adult liver flukes (wild strain); type: cell-based, Fasciola hepatica; conditions: 40 µM; for Effect on wild strain adult fluke motility, in words: 72 h; for Average motility of 4 parasites with 95% CI at 72 hour time point: wild strain adult flukes, score 1 good/normal to 6 no movement or dead
Summary of the method: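 Wild-strain adult F. hepatica of unknown provenance (n = 4 per condition) were exposed ex vivo to 40 µM compound in 0.4% DMSO for 72 h. Motility was scored from 1 (normal) to 6 (no movement/dead).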

[3] = system: adult F. hepatica flukes (Italian strain); test: Ex vivo dose response motility assay on adult liver flukes (Italian strain); type: cell-based, Fasciola hepatica; conditions: for Selectivity Index (SI) on Adult Flukes SI=CC50/EC50, 72 hour: CC50 in MDBK cells (24 h) / EC50 adult flukes 72 h; for EC50: Fasciola hepatica, adult flukes, motility, read-out: EC50 with 95% CI on Adult Flukes (motility), 72 hour; for Effect on adult fluke (Italian strain) movement, in words: dose response, MC042 statement at 40 μM after 72 h
Protocol: The collection, ex vivo culturing and screening of adult liver fluke (Italian strain; n = 3/condition) was previously described. Dose response assays (40 µM, 13.3 µM and 4.4 µM) were conducted for MC014, MC042, MC035, MC055 and MC062 with motility scores recorded at 24, 48 and 72 h (Table S6).

[4] = MTT cell viability assay on MDBK cells; type: cell-based, bovine; conditions: bovine, MDBK cells (Madin–Darby bovine kidney); MDBK cells, MTT, 24 h exposure; read-out: CC50 with 95% CI on MDBK cells (cytotoxicity)
Protocol: MTT cell viability assays were performed on Madin–Darby bovine kidney (MDBK cells) for the five selected hederagenin derivatives (MC014, MC035, MC042, MC055 and MC062) using final concentrations of 100 μM, 75 μM, 50 μM, 25 μM, 10 μM, 5 μM and 1 μM (in 1% DMSO). Negative (1% v/v Triton X-100, Sigma-Aldrich, UK) and positive (1% v/v DMSO or media only) controls were included. The protocol was followed as previously described. Absolute EC50 values were calculated from the corrected absorbance of replicates by non-linear regression, after log transformation of concentrations and data normalization (where DMSO values represents 0% inhibition and TX-100 values represent 100% inhibition) using GrapPad Prism 8.

[5] = system: immature F. hepatica flukes (Italian strain); test: Ex vivo motility assay on immature liver flukes (Italian strain), single concentration and dose response; type: cell-based, Fasciola hepatica; conditions: 40 µM; for Average motility of 4 parasites with 95% CI at 24 hour time point / Average motility of 4 parasites with 95% CI at 48 hour time point / Average motility of 4 parasites with 95% CI at 72 hour time point: immature flukes; for Average motility of 4 parasites with 95% CI at 24 hour time point: score 1 normal to 5 no movement or death; for Average motility of 4 parasites with 95% CI at 48 hour time point / Average motility of 4 parasites with 95% CI at 72 hour time point: score 1 to 5; for Effect on immature fluke motility, in words: by 72 h
Protocol: The six selected compounds (at 40 µM in 0.4% DMSO) were evaluated on immature flukes (n = 4/condition) at 24, 48 and 72 h (Table S4). The protocol for culturing and scoring (motility) of these life stages have been previously described. Due to restricted numbers of immature worms, a dose response assay was conducted only for MC042. Here, immature worms (n = 2/concentration tested) were screened against descending concentrations of MC042 (40 µM, 13.3 µM and 4.4 µM); motility scores were recorded at 24, 48 and 72 h (Table S5). The scoring pattern used is identical to that described for NEJs.

F. hepatica = system: F. hepatica; parameters: method as in PMID 4034744; conditions: cited from earlier work
[6] = 4.4 µM, adult flukes Italian strain, score 1 to 6
[7] = adult flukes Italian strain, score 1 to 6
[8] = 72 h, adult flukes Italian strain, score 1 to 6

Row | SMILES | Average phenotype of 25 NEJs with 95% CI, 24 hours ([1]; 24 h) | Average phenotype of 25 NEJs with 95% CI, 48 hours ([1]; 48 h) | Average phenotype of 25 NEJs with 95% CI, 72 hours ([1]; 72 h) | Activity against NEJs (first screen), in words [1] | Effect on wild strain adult fluke motility, in words [2] | Average motility of 4 parasites with 95% CI at 72 hour time point [2] | Average motility of 3 parasites treated with 4.4 µM, 24 hours [3, 6] | Average motility of 3 parasites treated with 4.4 µM, 48 hours [3, 6] | Average motility of 3 parasites treated with 13.3 µM, 24 hours [3, 7] | Average motility of 3 parasites treated with 13.3 µM, 48 hours [3, 7] | Average motility of 3 parasites treated with 13.3 µM, 72 hours [3, 8] | Average motility of 3 parasites treated with 40 µM, 24 hours [3, 7] | Average motility of 3 parasites treated with 40 µM, 48 hours [3, 7] | Average motility of 3 parasites treated with 40 µM, 72 hours [3, 8] | Selectivity Index (SI) on Adult Flukes SI=CC50/EC50, 72 hour [3] | EC50 ([3]; 72 h) | Effect on adult fluke (Italian strain) movement, in words [3] | CC50 at 24 h [4] | Average motility of 4 parasites with 95% CI at 24 hour time point [5] | Average motility of 4 parasites with 95% CI at 48 hour time point [5] | further results
1 | CC1(C)CC[C@]2(NC(=O)N3CCCC3)CC[C@]3(C)C(=CCC4[C@@]5(C)CC[C@H](O)[C@@](C)(CO)C5CC[C@]43C)C2C1 (stereo partly drawn) [MC055, N-((4aS,6aS,6bR,9R,10S,12aR)-10-Hydroxy-9-(hydroxymethyl)-2,2,6a,6b,9,12a-hexamethyl-1,3,4,5,6,6a,6b,7,8,8a,9,10,11,12,12a,12b,13,14b-octadecahydropicen-4a(2H)-yl)pyrrol-idine-1-carboxamide] | 6.00 (6.0;6.0) | 6.00 (6.0;6.0) | 6.00 (6.0;6.0) | maximal alterations to both phenotype/ultrastructure and motility | partial paralysis | 5.25 (4.7;5.7) | 1.00 (1.0;1.0) | 1.00 (1.0;1.0) | 1.00 (1.0;1.0) | 1.00 (1.0;1.0) | 4.66 (3.3;5.9) | 3.00 (3.0;3.0) | 3.66 (3.0;4.3) | 5.00 (5.0;5.0) | 5.72 | 6.06 µM | Decreased movement | 34.7 µM | 2.75 (1.8;3.6) | 5.00 (5.0;5.0) | Average motility of 25 NEJs with 95% CI, 24 hours ([1]; 24 h, motility score 1 good/normal to 5 no movement): 5.00 (5.0;5.0); Average motility of 25 NEJs with 95% CI, 48 hours ([1]; 48 h, motility score 1 good/normal to 5 no movement): 5.00 (5.0;5.0); Average motility of 25 NEJs with 95% CI, 72 hours ([1]; 72 h, motility score 1 good/normal to 5 no movement): 5.00 (5.0;5.0); Average motility of 3 parasites treated with 4.4 µM, 72 hours ([3]; 4.4 µM, 72 h, adult flukes Italian strain, score 1 to 6): 3.00 (3.0;3.0); Average motility of 4 parasites with 95% CI at 72 hour time point [5]: 5.00 (5.0;5.0); Effect on immature fluke motility, in words [5]: paralyzed the assayed immature flukes
2 | CN1CCN(C(=O)N[C@]23CCC(C)(C)CC2C2=CCC4[C@@]5(C)CC[C@@H]6OC(C)(C)OC[C@@]6(C)C5CC[C@@]4(C)[C@]2(C)CC3)CC1 (stereo partly drawn) [MC062, 4-Methyl-N-((4aR,6aR,6bS,8aS,14bR,16aS)-2,2,4a,6a,6b,11,11,14b-octamethyl-4a,5,6,6a, 6b,7,8,9,10,11, 12,12a,14,14a,14b,15,16,16a-octadecahydro-4H-piceno[3,4-d][1,3]dioxin-8a(4bH)-yl)piperazine-1-carboxamide] | 6.00 (6.0;6.0) | 6.00 (6.0;6.0) | 6.00 (6.0;6.0) | maximal alterations to both phenotype/ultrastructure and motility | partial paralysis | 5.00 (5.0;5.0) | 1.00 (1.0; 1.0) | 1.00 (1.0; 1.0) | 1.00 (1.0; 1.0) | 1.66 (1.0; 2.3) | 5.00 (5.0; 5.0) | 3.00 (3.0;3.0) | 4.00 (4.0;4.0) | 5.00 (5.0;5.0) | 2.43 | 5.61 µM | Decreased movement | 13.7 µM | 5.00 (5.0;5.0) | 5.00 (5.0;5.0) | Average motility of 4 parasites with 95% CI at 72 hour time point [5]: 5.00 (5.0;5.0); Effect on immature fluke motility, in words [5]: paralyzed the assayed immature flukes
3 | C[C@@H]1O[C@@H](O[C@H]2[C@H](O[C@H]3CC[C@@]4(C)[C@@H](CC[C@]5(C)[C@@H]4CC=C4[C@@H]6CC(C)(C)CC[C@]6(C(=O)O)CC[C@]45C)[C@]3(C)CO)OC[C@H](O)[C@@H]2O)[C@H](O)[C@H](O)[C@H]1O [α-Hederin] |  |  |  |  |  |  |  |  |  |  |  |  |  |  |  |  |  |  |  |  | Activity against F. hepatica, in words (F. hepatica): lethal activity
